Experimental data published in US9420781B1, “Agrochemical adjuvant concentrate for herbicides” (LAMBERTI SpA, priority 2015, dated 2016).

Assays:
Test in all cases: Herbicidal Effectiveness Test
Assay type in all cases: in vivo
Details in all cases: tank mix with Roundup PM 11 fl oz/a, Clarity 6 fl oz/a
AMASS Amaranth = system: AMASS Amaranth
Description: (§1) 4 diluted sprayable herbicide tank mixes were prepared using water with an hardness of 1000 ppm, 0.25% v/v of NIS and the adjuvant concentrates of Example 1 and 3-5.
(§2) For comparative purpose, two other diluted herbicide sprayable tank mixes with two different adjuvants, AMS and DPK 50, were prepared.
(§3) The formulations contained, as herbicides, Roundup® PM for an application rate of 11 fl oz/a (803 ml/h) and Clarity® for an application rate of 6 fl oz/a (438 ml/h).
(§4) The formulation were applied on a multispecies system.
(§5) The herbicidal performances were evaluated by awarding scores to the treated plants in comparison to untreated control plants. The evaluation scale ranges from 0% to 100% herbicidal activity. 100% activity means the complete death at least of those parts of the plant that are above ground.
(§6) The results 14 and 28 days after the treatment are reported in the following Table 3 and Table 4 respectively.

HELSS Sunflower = system: HELSS Sunflower
Description: as §1, §2, §3, §4, §5, §6

LIUSS Flax = system: LIUSS Flax
Description: as §1, §2, §3, §4, §5, §6

ZEAMX Corn = system: ZEAMX Corn
Description: as §1, §2, §3, §4, §5, §6

[1] = 14 days after treatment, adjuvant 8.5 lb/100 gal, 0.25% v/v NIS, water hardness 1000 ppm
[2] = 14 days after treatment, adjuvant 17 lb/100 gal, 0.25% v/v NIS, water hardness 1000 ppm
[3] = 28 days after treatment, adjuvant 8.5 lb/100 gal
[4] = 28 days after treatment, adjuvant 17 lb/100 gal

`N.N.O=S(=O)(O)O` [AMS, ammonium sulfate] was tested, and the “herbicidal activity, Amaranth” value (AMASS Amaranth; [1]) was 75.3%, the “herbicidal activity, Amaranth” value (AMASS Amaranth; [2]) was 91% and the “herbicidal activity, Amaranth” value (AMASS Amaranth; [3]) was 79.3%. The “herbicidal activity, Amaranth” value (AMASS Amaranth; [4]) was 96%, the “herbicidal activity, Sunflower” value (HELSS Sunflower; [1]) was 81% and the “herbicidal activity, Sunflower” value (HELSS Sunflower; [2]) was 94.3%. For the same compound, the “herbicidal activity, Sunflower” value (HELSS Sunflower; [3]) was 91.7%, the “herbicidal activity, Sunflower” value (HELSS Sunflower; [4]) was 95% and the “herbicidal activity, Flax” value (LIUSS Flax; [1]) was 74.3%. For the same compound, the “herbicidal activity, Flax” value (LIUSS Flax; [2]) was 88.3%, the “herbicidal activity, Flax” value (LIUSS Flax; [3]) was 76% and the “herbicidal activity, Flax” value (LIUSS Flax; [4]) was 90%. For the same compound, the “herbicidal activity, Corn” value (ZEAMX Corn; [1]) was 95%, the “herbicidal activity, Corn” value (ZEAMX Corn; [2]) was 96.3% and the “herbicidal activity, Corn” value (ZEAMX Corn; [3]) was 95%. For the same compound, the “herbicidal activity, Corn” value (ZEAMX Corn; [4]) was 97%.
